Biological target: T1, human mAChR M1 (Homo sapiens, UniProt P11229)
T1 sequence (P11229 1-460): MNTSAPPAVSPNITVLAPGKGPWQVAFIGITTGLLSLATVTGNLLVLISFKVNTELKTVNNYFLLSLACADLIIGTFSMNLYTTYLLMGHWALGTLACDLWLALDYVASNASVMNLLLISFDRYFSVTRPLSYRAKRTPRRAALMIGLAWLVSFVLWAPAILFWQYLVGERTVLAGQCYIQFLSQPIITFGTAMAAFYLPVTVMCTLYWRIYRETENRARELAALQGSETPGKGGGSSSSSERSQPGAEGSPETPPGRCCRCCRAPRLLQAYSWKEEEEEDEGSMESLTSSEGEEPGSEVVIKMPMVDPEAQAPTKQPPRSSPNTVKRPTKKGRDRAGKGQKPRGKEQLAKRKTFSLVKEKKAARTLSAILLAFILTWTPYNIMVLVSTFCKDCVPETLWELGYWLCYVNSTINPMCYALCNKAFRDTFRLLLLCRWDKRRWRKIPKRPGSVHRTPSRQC
Experiment: mAChR M1 cell-based functional assay (calcium mobilization, PAM mode)
Conditions: CHO-K1 cells stably expressing hM1, calcium flux (Fluo-4); for EC50: concentration-dependent increase in the EC20 acetylcholine response; for Emax: potentiation of EC20 acetylcholine response
Source text: Chinese hamster ovary (CHO-K1) cells stably expressing rat (r)M1 were purchased from the American Type Culture Collection and cultured according to their indicated protocol. CHO cells stably expressing human (h)M2, hM3, and hM5 were described previously (Levey, et al., 1991); hM1 and hM4 cDNAs were purchased from Missouri S&T cDNA Resource; rM4 cDNA was provided by T. I. Bonner (National Institutes of Health, Bethesda, MD). rM2 and rM3 were cloned from a rat brain cDNA library and sequence verified. hM1, rM2, rM3, hM4, and rM4 cDNAs were used to stably transfect CHO-K1 cells purchased from the American Type Culture Collection using Lipofectamine2000. To make stable rM2, hM2, rM3, hM4, and rM4 cell lines for use in calcium mobilization assays, these cells also were stably transfected with a chimeric G-protein (Gqi5) (provided by B. R. Conklin, University of California, San Francisco) using Lipofectamine 2000. rM1, hM1, rM3, hM3, rM5, and hM5 cells were grown in Ham's F-12 medium containing 10% heat-inactivated fetal bovine serum (FBS), 20 mM HEPES, and 50 μg/mL G418 sulfate. rM2-Gqi5, hM2-Gqi5, and hM4-Gqi5 cells were grown in the same medium also containing 500 μg/mL Hygromycin B. Stable rM4-Gqi5 cells were grown in DMEM containing 10% heat-inactivated FBS, 20 mM HEPES, 400 μg/mL G418 sulfate, and 500 μg/mL Hygromycin B.
For high throughput measurement of agonist-evoked increases in intracellular calcium, CHO-K1 cells stably expressing muscarinic receptors were plated in growth medium lacking G418 and hygromycin at 15,000 cells/20 μL/well in Greiner 384-well black-walled, tissue culture (TC)-treated, clear-bottom plates (VWR). Cells were incubated overnight at 37° C. and 5% CO2. The next day, cells were washed using an ELX 405 (BioTek) with four washes (80 μL) of assay buffer then aspirated to 20 μL. Next, 20 μL of 16 μM Fluo-4/acetoxymethyl ester (Invitrogen, Carlsbad, CA) prepared as a 2.3 mM stock in DMSO and mixed in a 1:1 ratio with 10% (w/v) Pluronic F-127 and diluted in assay buffer was added to the wells and the cell plates were incubated for 50 min at 37° C. and 5% CO2. Dye was removed by washing with the ELX 405 (four […], washes of assay buffer) then aspirated to 20 μL. Compound master plates were formatted in an 11 point CRC format (1:3 dilutions) in 100% DMSO with a starting concentration of 10 mM using the BRAVO liquid handler (Agilent). Test compound CRCs were then transferred to daughter plates (240 nL) using the Echo acoustic plate reformatter (Labcyte, Sunnyvale, CA) and then diluted into assay buffer (40 μL) to a 2× stock using a Thermo Fisher Combi (Thermo Fisher Scientific, Waltham, MA).
Calcium flux was measured using the Functional Drug Screening System (FDSS) 6000 (Hamamatsu Corporation, Tokyo, Japan) as an increase in the fluorescent static ratio. Compounds were applied to cells (20 μL, 2×) using the automated system of the FDSS 6000 at 4 s into the 300 s protocol and the data were collected at 1 Hz. At 144 s into the 300 s protocol, 10 μL of an EC20 concentration of the muscarinic receptor agonist acetylcholine was added (5×), followed by the addition of 12 μL an EC80 concentration of acetylcholine at the 230 s time point (5×). Agonist activity was analyzed as a concentration-dependent increase in calcium mobilization upon compound addition. Emax values for agonist activity are expressed relative to the maximum for acetylcholine. Positive allosteric modulator activity was analyzed as a concentration-dependent increase in the EC20 acetylcholine response. Antagonist activity was analyzed as a concentration-dependent decrease in the EC80 acetylcholine response. Concentration-response curves were generated using a four-parameter logistical equation in XLfit curve fitting software (IDBS, Bridgewater, NJ) for Excel (Microsoft, Redmond, WA) or Prism (GraphPad Software, Inc., San Diego, CA). […]

Structure (SMILES): [2H]C1([2H])Oc2c(C(=O)N[C@H]3CCOC[C@@H]3O)cc(Cc3ccc(-n4cccn4)cc3)c(C)c2O1 [Compound 22, 6-(4-(1H-pyrazol-1-yl)benzyl)-N-((3R,4S)-3-hydroxytetrahydro-2H-pyran-4-yl)-7-methylbenzo[d][1,3]dioxole-2,2-d2-4-carboxamide]
- EC50: 44 nM
- Emax: 72%

Structure (SMILES): [2H]C1([2H])Oc2c(C(=O)N[C@H]3CCCC[C@@H]3O)cc(Cc3ccc(-n4cccn4)cc3)c(C)c2O1 [Compound 23, 6-(4-(1H-pyrazol-1-yl)benzyl)-N-((1S,2S)-2-hydroxycyclohexyl)-7-methylbenzo[d][1,3]dioxole-2,2-d2-4-carboxamide]
- EC50: 210 nM
- Emax: 75%

Structure (SMILES): [2H]C1([2H])Oc2c(C(=O)N[C@H]3CCC[C@@H]3O)cc(Cc3ccc(-n4cccn4)cc3)c(C)c2O1 [Compound 24, 6-(4-(1H-pyrazol-1-yl)benzyl)-N-((1S,2S)-2-hydroxycyclopentyl)-7-methylbenzo[d][1,3]dioxole-2,2-d2-4-carboxamide]
- EC50: 1000 nM
- Emax: 70%

Reference: patent US12065433B2, “Positive allosteric modulators of the muscarinic acetylcholine receptor M1” (Vanderbilt University, priority 2018, dated 2024)
